Experimental data from patent US20250213523A1, “COMBINATION OF HDAC INHIBITORS AND STATINS FOR USE IN THE TREATMENT OF PANCREATIC CANCER” (ISTITUTO NAZIONALE TUMORI IRCCS - FONDAZIONE G. PASCALE, priority 2022, published 2025).

How the values were obtained:
[1] = test system: ASPC1; assay: Cell proliferation assay (Sulforhodamine B), IC50; assay type: cell-based; conditions: Homo sapiens; ASPC1, 96 hours of treatment; read-out: IC50 96 h mean ± SD
Description: (§1) Cell proliferation was measured in 96-well plates in cells untreated and treated with described drugs as single agent or in combination. […] Drugs combination studies were based on concentration-effect curves generated as a plot of the fraction of unaffected (surviving) cells versus drug concentration after 96 h of treatment. Synergism, additivity, and antagonism were quantified after an evaluation of the Combination Index (CI), which was calculated by the Chou-Talalay equation with CalcuSyn software (Biosoft, Cambridge, UK-Chou T C. Cancer Res. 2010 Jan. 15; 70(2):440-6.), as described elsewhere (Terranova-Barberio M, J Exp Clin Cancer Res. 2017; 36(1):177); Bruzzese et al, J Cell Physiol 2011, 226(9):2378-2390). […] The DRI determined the magnitude of dose reduction allowed for each drug when given in combination, compared with the concentration of a single agent that is needed to achieve the same effect. Clonogenic assay Colony formation assay is an in vitro cell survival assay based on the ability of a single cell to grow into a colony. The PANC1, ASPC1 and PANC28 cell lines were plated in 96 well plates with 50 cell/well while the BxPC3 cell line with 100 cell/well. The day after the cells were treated with VPA, SIM alone (at dose of IC10, IC25 and IC50) and in combination. The cells were grown for 10 days. The formed colonies were fixed with TCA (50%) and measured using a spectrophotometric dye incorporation assay (Sulforhodamine B or crystal violet). Microtissue formation assay Pancreatic cancer cell lines PANC1, ASPC1, PANC28, BxPC3 and MiaPaca were cultured as microtissues by the ultra-low attachment (ULA) System (PerkinElmer). The cancer cells were marked using a green fluorescent probe-cell traker (Thermo Fisher) while fibroblast (only for preliminary experiment to evaluate tissues formation) with red probe (PKH-26 Sigma Aldrich) according to manufacture instruction. […] 3D microtissues were maintained in the incubator and photographed by Opera Phenix microscope (Perkin Elmer) air objective magnification 5× and/or scored by Cell Titer-Glo® 3D Cell Viability Assay (Promega) by using a Multimode Reader Cytation 5 (Biotek).

[2] = test system: PANC1; assay: Cell proliferation assay (Sulforhodamine B), IC50; assay type: cell-based; conditions: Homo sapiens, PANC-1; PANC1, 96 hours of treatment; read-out: IC50 96 h mean ± SD
Description: as §1

[3] = test system: BxPC3; assay: Cell proliferation assay (Sulforhodamine B), IC50; assay type: cell-based; conditions: Homo sapiens, BXPC-3; BxPC3, 96 hours of treatment; read-out: IC50 96 h mean ± SD
Description: as §1, with “The day after the cells were treated with VPA, SIM alone (at dose of IC10, IC25 and IC50) and in combination.” left out

[4] = test system: COLO357; assay: Cell proliferation assay (Sulforhodamine B), IC50; assay type: cell-based; conditions: Homo sapiens; COLO357, 96 hours of treatment; read-out: IC50 96 h mean ± SD
Description: as §1, with “The day after the cells were treated with VPA, SIM alone (at dose of IC10, IC25 and IC50) and in combination.” left out

[5] = test system: L3.6pl; assay: Cell proliferation assay (Sulforhodamine B), IC50; assay type: cell-based; conditions: Homo sapiens, 96 hours of treatment, read-out: IC50 96 h mean ± SD
Description: as §1, with “The day after the cells were treated with VPA, SIM alone (at dose of IC10, IC25 and IC50) and in combination.” left out

[6] = test system: MDA-PANC28; assay: Cell proliferation assay (Sulforhodamine B), IC50; assay type: cell-based; conditions: Homo sapiens, MDA-Panc-28; MDA-PANC28, 96 hours of treatment; read-out: IC50 96 h mean ± SD
Description: as §1, with “The day after the cells were treated with VPA, SIM alone (at dose of IC10, IC25 and IC50) and in combination.” left out

[7] = test system: MIAPACA; assay: Cell proliferation assay (Sulforhodamine B), IC50; assay type: cell-based; conditions: Homo sapiens, MIA PaCa-2, 96 hours of treatment, read-out: IC50 96 h mean ± SD
Description: as §1, with “The day after the cells were treated with VPA, SIM alone (at dose of IC10, IC25 and IC50) and in combination.” left out

[8] = test system: KPC ID11; assay: Cell proliferation assay (Sulforhodamine B), IC50; assay type: cell-based, C57/BL6 mice; conditions: Mus musculus; KPC ID11, 96 hours of treatment; read-out: IC50 96 h mean ± SD
Description: (§2) FIG. 1. Pancreatic Cancer Cell lines features. A. Basal mRNA basal levels of EMT markers Vimentin and E-Cadherin in PDAC cell lines L3.6pl, BxPC3, COLO357, PANC28, PANC1, ASPC1 and MIAPACA2, in normal pancreatic cells HPDE cells, as well as in 2 established PDX-derived primary cells KPC ID11 and KPC ID95 were determined by qRT-PCR. […] Cells were grown for 48 h before preparation of cell lysates. Proteins were separated by SDS-PAGE and transferred to PVDF membranes using standard protocols. The membranes were probed with specific antibodies and Ponceau Red as total protein loading controls. Data represents representative results of at least three independent experiments.
as §1, with “The day after the cells were treated with VPA, SIM alone (at dose of IC10, IC25 and IC50) and in combination.” left out

[9] = test system: KPC ID95; assay: Cell proliferation assay (Sulforhodamine B), IC50; assay type: cell-based, C57/BL6 mice; conditions: Mus musculus; KPC ID95, 96 hours of treatment; read-out: IC50 96 h mean ± SD
Description: as §2
as §1, with “The day after the cells were treated with VPA, SIM alone (at dose of IC10, IC25 and IC50) and in combination.” left out

[10] = test system: PANC1, ASPC1, PANC28 and BxPC3 cells; assay: Colony formation (clonogenic) assay; assay type: cell-based, human; conditions: high (IC25) and low (IC10) doses; all cell lines
Description: FIG. 3. VPA plus SIMVASTATIN antiproliferative and pro-apoptotic effects in PDAC cell lines. A. Synergistic inhibition of colony formation by the VPA/SIM in ASPC1, PANC28, PANC1 and BxPC3 cell lines. […] Upper panel: representative imagines of one experiment; in the lower panel: the bar graphs represent the values of absorbance of colonies after SRB colorimetric assay. Statistical significance was determined by a 2 tailed, unpaired Student's T test (*P<0.05;** P<0.01). B.-C. Synergistic inhibition of microtissues formation by the VPA and SIM alone and in combination. […] The graphics represent the number of viable cells in 3D cell culture based on quantitation of the ATP content. […] Statistical significance was determined by a 2 tailed, unpaired Student's T test (*P<0.05;** P<0.01) (C). […] Antiproliferative effect was assessed in all PDAC cell lines by sulforhodamine B colorimetric assay (see Methods) and expressed as percentage of control. B Apoptosis was evaluated by Caspase 3/7 activity assay, in PANC1, PANC28 and ASPC1 cells untreated or treated for 24 h with VPA/SIM and/or GEM/TAX at the low doses (VPA 0.5 mM, SIM 0,625 μM, GEM 25 nM and TAX 1.25 nM) and evaluated by luminescence assay. […] Expression of cleaved PARP in PANC1, PANC28 and ASPC1 cell lines untreated or treated with VPA/SIM and/or GEM/TAX for 24 h was evaluated by western blotting. βActin was used as loading control. […]

Structure (SMILES) | IC50 [1] [µM] | IC50 [2] [µM] | IC50 [3] [µM] | IC50 [4] [µM] | IC50 [5] [µM] | IC50 [6] [µM] | IC50 [7] [µM] | IC50 [8] [µM] | IC50 [9] [µM] | colonies formation [10]
CC(C)c1c(C(=O)Nc2ccccc2)c(-c2ccccc2)c(-c2ccc(F)cc2)n1CC[C@@H](O)C[C@@H](O)CC(=O)O [ATOR, Atorvastatin] | 4.55 ± 0.07 | 14.4 ± 0.56 | 16.9 ± 4.3 | 12 ± 2.2 | 11 ± 3.2 | 3.25 ± 0.35 | 1.8 ± 0.06 | – | – | –
CC[C@H](C)C(=O)O[C@H]1C[C@@H](C)C=C2C=C[C@H](C)[C@H](CC[C@@H]3C[C@@H](O)CC(=O)O3)[C@H]21 [LOV, Lovastatin] | 8.83 ± 2.4 | 28.2 ± 5.9 | 18.7 ± 6.95 | 8 ± 0.5 | 12.1 ± 0.33 | 4.05 ± 0.55 | 3 ± 0.4 | – | – | –
Nc1ccccc1NC(=O)c1ccc(CNC(=O)OCc2cccnc2)cc1 [MS-275] | 2.2 ± 0.14 | 2.65 ± 0.07 | 0.9 ± 0.05 | > 8 | > 8 | 2.1 ± 0.14 | 0.02 | > 8 | > 8 | –
Cc1[nH]c2ccccc2c1CCNCc1ccc(/C=C/C(=O)NO)cc1 [PAN, 2-(E)-N-hydroxy-3-[4 [[[2-(2-methyl-1H-indol-3-yl)ethyl]amino]methyl]phenyl]-2-propenamide] | 0.0156 ± 0.00177 | 0.0137 ± 0.00275 | 0.0243 ± 0.00503 | 0.065 ± 0.00703 | > 0.16 | 0.0224 ± 0.00056 | 0.016 ± 0.0014 | > 0.16 | > 0.16 | –
CCC(C)(C)C(=O)O[C@H]1C[C@@H](C)C=C2C=C[C@H](C)[C@H](CC[C@@H]3C[C@@H](O)CC(=O)O3)[C@H]21 [SIM, Simvastatin] | 1.5 ± 0.28 | 9.2 ± 0.9 | 11.2 ± 2.59 | 6 ± 0.5 | 5.1 ± 0.8 | 1.3 ± 0.07 | 2 ± 0.21 | 2.3 ± 0.48 | 1.05 ± 0.06 | –
O=C(CCCCCCC(=O)Nc1ccccc1)NO [VOR, Vorinostat] | 0.74 ± 0.04 | 0.82 ± 0.1 | – | – | – | – | – | – | – | –
CCCC(CCC)C(=O)O [VPA, 2-propylpentanoic acid] | 3500 ± 70 | 4500 ± 70 | 1820 ± 190 | 1000 ± 100 | 2200 ± 120 | 2800 ± 560 | 750 ± 50 | 1800 ± 40 | 1600 ± 380 | inhibited colonies formation
